In patent US6407103B2, “Indeno [1,2-c] pyrazol-4-ones and their uses” (Bristol-Myers Squibb Pharma Company, priority 1998, dated 2002):

Structure (SMILES)	melting point
Cc1cc(-c2[nH]nc3c2C(=O)c2c(NC(=O)NN4CCN(C)CC4)cccc2-3)c(C)s1 [Example CXXIV, 3-(2,5-dimethyl-3-thienyl)-5-((4-methylpiperazino)carbamoylamino)indeno [1,2-c]pyrazol-4-one]	250 °C
COc1ccc(-c2[nH]nc3c2C(=O)c2c(NC(C)=O)cccc2-3)cc1 [Example I, 3-(4-methoxyphenyl)-5-(acetamido)indeno[1,2-c]pyrazol-4-one]	268 °C
COc1ccc(-c2[nH]nc3c2C(=O)c2c(NC(=O)C4CC4)cccc2-3)cc1 [Example III, 3-(4-methoxyphenyl)-5-(cyclopropanecarboxamido)indeno[1,2-c]pyrazol-4-one]	289 °C
CCCC(=O)Nc1cccc2c1C(=O)c1c-2n[nH]c1-c1ccc(OC)cc1 [Example IX, 3-(4-methoxyphenyl)-5-(butanamido)indeno[1,2-c]pyrazol-4-one]	282 °C
O=CNc1cccc2c1C(=O)c1c-2n[nH]c1-c1ccncc1 [Example L, 3-(4-pyridyl)-5-(formamido)indeno [1,2-c]pyrazol-4-one]	> 300 °C
CN(C)c1ccc(-c2[nH]nc3c2C(=O)c2c(NC(=O)CN4CCOCC4)cccc2-3)cc1 [Example LV, 3-(4-(N,N-dimethylamino)phenyl)-5-(morpholinoacetamido)indeno[1,2-c]pyrazol-4-one]	> 300 °C
CC(=O)Nc1cccc2c1C(=O)c1c-2n[nH]c1-c1ccc(N2CCOCC2)cc1 [Example LVIII, 3-(4-morpholinophenyl)-5-(acetamido)indeno[1,2-c]pyrazol-4-one]	> 300 °C
CCc1ccc(-c2[nH]nc3c2C(=O)c2c(NC(C)=O)cccc2-3)cc1 [Example LXI, 3-(4-ethylphenyl)-5-(acetamido)indeno[1,2-c]pyrazol-4-one]	294 °C
COc1ccc(-c2[nH]nc3c2C(=O)c2c(NC(N)=O)cccc2-3)cc1 [Example LXIII, 3-(4-methoxyphenyl)-5-(carbamoylamino)indeno[1,2-c]pyrazol-4-one]	> 300 °C
CNC(=O)Nc1cccc2c1C(=O)c1c-2n[nH]c1-c1ccc(OC)cc1 [Example LXV, 3-(4-methoxyphenyl)-5-((methylcarbamoyl)amino)indeno[1,2-c]pyrazol-4-one]	> 300 °C
COc1ccc(-c2[nH]nc3c2C(=O)c2c(NC(=O)NN4CCOCC4)cccc2-3)cc1 [Example LXVI, 3-(4-methoxyphenyl)-5-((morpholinocarbamoyl)amino)indeno[1,2-c]pyrazol-4-one]	> 300 °C
COc1ccc(-c2[nH]nc3c2C(=O)c2c(NC(=O)NN4CCN(C)CC4)cccc2-3)cc1 [Example LXVIII, 3-(4-methoxyphenyl)-5-((4-methylpiperazinocarbamoyl)amino)indeno[1,2-c]pyrazol-4-one]	> 300 °C
COc1ccc(-c2[nH]nc3c2C(=O)c2c(NC(=O)CN4CCN(c5ccccn5)CC4)cccc2-3)cc1 [Example LXX, 3-(4-methoxyphenyl)-5-(4-(2-pyridyl)piperazinoacetamido)indeno[1,2-c]pyrazol-4-one]	> 300 °C
COc1ccc(-c2[nH]nc3c2C(=O)c2c(NC(=O)CN4CCN(CCN)CC4)cccc2-3)cc1 [Example LXXI, 3-(4-methoxyphenyl)-5-(4-(aminoethyl)piperazinoacetamido)indeno[1,2-c]pyrazol-4-one]	> 300 °C
COc1ccc(-c2[nH]nc3c2C(=O)c2c(NC(=O)CN4CCC(C(N)=O)CC4)cccc2-3)cc1 [Example LXXII, 3-(4-methoxyphenyl)-5-(4-carbamoylpiperidinoacetamido)indeno[1,2-c]pyrazol-4-one]	> 300 °C
COc1ccc(-c2[nH]nc3c2C(=O)c2c(NC(=O)CN4CCC(O)CC4)cccc2-3)cc1 [Example LXXIII, 3-(4-methoxyphenyl)-5-(4-hydroxypiperidinoacetamido)indeno[1,2-c]pyrazol-4-one]	> 300 °C
CN1CCN(CC(=O)Nc2cccc3c2C(=O)c2c-3n[nH]c2-c2ccc(N(C)C)cc2)CC1 [Example LXXVIII, 3-(4-(dimethylamino)phenyl)-5-((4-methylpiperazino)acetamido)indeno[1,2-c]pyrazol-4-one]	> 300 °C
CN(C)c1ccc(-c2[nH]nc3c2C(=O)c2c(NC(=O)CN4CCC(O)CC4)cccc2-3)cc1 [Example LXXX, 3-(4-(N,N-dimethylamino)phenyl)-5-(4-hydroxypiperidinoacetamido)indeno[1,2-c]pyrazol-4-one]	267 °C
O=C(CN1CCOCC1)Nc1cccc2c1C(=O)c1c-2n[nH]c1-c1ccc(N2CCOCC2)cc1 [Example LXXXI, 3-(4-morpholinophenyl)-5-(morpholinoacetamido)indeno[1,2-c]pyrazol-4-one]	258 °C
O=C(CN1CCC(O)CC1)Nc1cccc2c1C(=O)c1c-2n[nH]c1-c1ccc(N2CCOCC2)cc1 [Example LXXXIII, 3-(4-(4-morpholinyl)phenyl)-5-((4-hydroxy-1-piperidinyl)acetamido)indeno[1,2-c]pyrazol-4-one]	245 °C
NCC1CCN(CC(=O)Nc2cccc3c2C(=O)c2c-3n[nH]c2-c2ccc(N3CCOCC3)cc2)CC1 [Example LXXXIV, 3-(4-morpholinophenyl)-5-(4-(aminomethyl)piperidinoacetamido)indeno[1,2-c]pyrazol-4-one]	240 °C

Structure (SMILES)	melting point
CN1CCN(NC(=O)Nc2cccc3c2C(=O)c2c-3n[nH]c2-c2ccc(N(C)C)cc2)CC1 [Example LXXXV, 3-(4-(N,N-dimethylamino)phenyl)-5-(4-methylpiperazinocarbamoylamino)indeno[1,2-c]pyrazol-4-one]	> 300 °C
COc1ccc(-c2[nH]nc3c2C(=O)c2c(NC(=S)NN4CCN(C)CC4)cccc2-3)cc1 [Example LXXXVI, 3-(4-methoxyphenyl)-5-((4-methylpiperazino)thionocarbamoylamino)indeno[1,2-c]pyrazol-4-one]	> 300 °C
Cn1ccc(-c2[nH]nc3c2C(=O)c2c(NC(N)=O)cccc2-3)c1 [Example LXXXVIX, 3-(1-methyl-3-pyrrolyl)-5-(carbamoylamino)indeno[1,2-c]pyrazol-4-one]	269 °C
CCC(=O)Nc1cccc2c1C(=O)c1c-2n[nH]c1-c1ccc(OC)cc1 [Example V, 3-(4-methoxyphenyl)-5-(propanamido)indeno[1,2-c]pyrazol-4-one]	287 °C
COc1ccc(-c2[nH]nc3c2C(=O)c2c(NC(=O)C4CCCC4)cccc2-3)cc1 [Example VI, 3-(4-methoxyphenyl)-5-(cyclopentanecarboxamido)indeno[1,2-c]pyrazol-4-one]	267 °C
COc1ccc(-c2[nH]nc3c2C(=O)c2c(NC(=O)C4CCC4)cccc2-3)cc1 [Example VII, 3-(4-methoxyphenyl)-5-(cyclobutanecarboxamido)indeno[1,2-c]pyrazol-4-one]	297 °C
COc1ccc(-c2[nH]nc3c2C(=O)c2c(NC(=O)Cc4ccccc4)cccc2-3)cc1 [Example VIII, 3-(4-methoxyphenyl)-5-(phenylacetamido)indeno[1,2-c]pyrazol-4-one]	280 °C
COc1ccc(-c2[nH]nc3c2C(=O)c2c(NC(=O)Cc4ccc(Cl)cc4)cccc2-3)cc1 [Example X, 3-(4-methoxyphenyl)-5-((4-chlorophenyl)acetamido)indeno[1,2-c]pyrazol-4-one]	238 °C
CC(=O)Nc1cccc2c1C(=O)c1c-2n[nH]c1-c1sccc1C [Example XC, 3-(3-methyl-2-thienyl)-5-(acetamido)indeno[1,2-c]pyrazol-4-one]	275 °C
CCc1[nH]nc2c1C(=O)c1c(NC(N)=O)cccc1-2 [Example XCI, 3-(ethyl)-5-(carbamoylamino)indeno[1,2-c]pyrazol-4-one]	> 250 °C
CCCc1[nH]nc2c1C(=O)c1c(NC(N)=O)cccc1-2 [Example XCII, 3-(n-propyl)-5-(carbamoylamino)indeno[1,2-c]pyrazol-4-one]	187 °C
CC(C)c1[nH]nc2c1C(=O)c1c(NC(N)=O)cccc1-2 [Example XCIII, 3-(i-propyl)-5-(carbamoylamino)indeno[1,2-c]pyrazol-4-one]	> 250 °C
CCOC(=O)c1ccc(-c2[nH]nc3c2C(=O)c2c(NC(N)=O)cccc2-3)s1 [Example XCIX, 3-(5-carboethoxy-2-thienyl)-5-(carbamoylamino)indeno[1,2-c]pyrazol-4-one]	> 280 °C
Cc1ccsc1-c1[nH]nc2c1C(=O)c1c(NC(N)=O)cccc1-2 [Example XCVII, 3-(3-methyl-2-thienyl)-5-(carbamoylamino)indeno[1,2-c]pyrazol-4-one]	270 °C
Cc1ccc(-c2[nH]nc3c2C(=O)c2c(NC(N)=O)cccc2-3)s1 [Example XCVIII, 3-(5-methyl-2-thienyl)-5-(carbamoylamino)indeno[1,2-c]pyrazol-4-one]	> 280 °C
COc1ccc(-c2[nH]nc3c2C(=O)c2c(NC(=O)Cc4cccc(OC)c4)cccc2-3)cc1 [Example XI, 3-(4-methoxyphenyl)-5-((3-methoxyphenyl)acetamido)indeno[1,2-c]pyrazol-4-one]	> 300 °C
COc1ccc(CC(=O)Nc2cccc3c2C(=O)c2c-3n[nH]c2-c2ccc(OC)cc2)cc1 [Example XII, 3-(4-methoxyphenyl)-5-((4-methoxyphenyl)acetamido)indeno[1,2-c]pyrazol-4-one]	280 °C
COc1ccc(-c2[nH]nc3c2C(=O)c2c(NC(=O)Cc4ccc(OC)c(OC)c4)cccc2-3)cc1 [Example XIII, 3-(4-methoxyphenyl)-5-((3,4-dimethoxyphenyl)acetamido)indeno[1,2-c]pyrazol-4-one]	> 300 °C
COc1ccc(-c2[nH]nc3c2C(=O)c2c(NC(=O)Cc4cc(OC)ccc4OC)cccc2-3)cc1 [Example XIV, 3-(4-methoxyphenyl)-5-((2,5-dimethoxyphenyl)acetamido)indeno[1,2-c]pyrazol-4-one]	226 °C
COc1ccc(-c2[nH]nc3c2C(=O)c2c(NC(=O)Cc4ccccc4OC)cccc2-3)cc1 [Example XIX, 3-(4-methoxyphenyl)-5-((2-methoxyphenyl)acetamido)indeno[1,2-c]pyrazol-4-one]	255 °C
